Source: patent US11793845B2, “Composition for ameliorating peripheral sensory neuropathy” (KINKI UNIVERSITY, priority 2016, dated 2023)

What was measured:
[1] = system: Peripheral Sensory Neuropathy Induced by Paclitaxel in Mice; assay: cold plate test, paclitaxel-induced peripheral sensory neuropathy; type: in vivo; details: duloxetine 30 mg/kg daily
Protocol: The effect of the Lentinus edodes mycelium extract on the paresthesia to cold stimulation was tested by performing the cold plate test. The mice in the three groups in the above (1) were put on a cold plate set to 10° C. and a response time for avoidance (a latency) was measured. The shorter latency means that the mouse avoids the cold stimulation of the cold plate more.
In the present test, the mice were divided into four groups by a difference in test objects. As in Example 1, male Balb/c mice of 6 to 7 weeks old were used. The mice were divided into a total of four groups, a control group, a paclitaxel administration group, and two different paclitaxel and Lentinus edodes mycelium extract administration groups (paclitaxel+Lentinus edodes mycelium extract administration groups). […] Further, a group in which the Lentinus edodes mycelium extract was administered to each mouse once a day at a dose of 1 g/kg (hereinafter referred to as “1 g/kg administration group”) and a group in which the Lentinus edodes mycelium extract was administered to each mouse once a day at a dose of 2 g/kg (hereinafter referred to as “2 g/kg administration group”) were prepared.
Evaluation was performed in the same manner as in the test with oxaliplatin. Referring to FIG. 4, the horizontal axis indicates the elapsed time after administration (days) and the vertical axis indicates the avoidance response time (seconds). Open circles with a solid line represent the control group. Filled circles with a solid line represent the group in which only paclitaxel was administered. Open squares with a dash line and filled squares with a dash line represent the groups in which paclitaxel and the Lentinus edodes mycelium extract were administered at the same time (paclitaxel+Lentinus edodes mycelium extract administration groups). […] When the difference with the control group was determined to be significant using a significance level of 5%, the data were marked by “*”. […]

[2] = system: Peripheral Sensory Neuropathy Induced by Vincristine in Mice; assay: von Frey test, vincristine-induced peripheral sensory neuropathy; type: in vivo; details: duloxetine 30 mg/kg daily
Description: The mice in the three groups in the above (1) were put in a cage and a filament having a strength of 0.16 g was pressed on the plantar surface of the leg to measure the number of times (a score) of avoidance response.
In the present test, the mice were divided into three groups by a difference in test objects. As in Example 1, male Balb/c mice of 6 to 7 weeks old were used. The mice were divided into a total of three groups, a control group, a vincristine administration group, and a vincristine and Lentinus edodes mycelium extract administration group (vincristine+Lentinus edodes mycelium extract administration group).
Vincristine was administered to each mouse once a day at a dose of 0.2 mg/kg. Further, the Lentinus edodes mycelium extract was administered to each mouse once a day at a dose of 2 g/kg.
Further, the number of times of administration was set to once a week (on Day 0, Day 7, and Day 14) for vincristine and daily (from Day 0 to Day 15) for the Lentinus edodes mycelium extract in both the von Frey test and the cold plate test below.
Evaluation was performed in the same manner as in the test with oxaliplatin in Example 1. Referring to FIG. 5, the horizontal axis indicates an elapsed time after administration (days) and the vertical axis indicates the avoidance response (scores). Open circles with a solid line represent the control group. Filled circles with a solid line represent the group in which only vincristine was administered. Open squares with a dash line represent the group in which vincristine and the Lentinus edodes mycelium extract were administered at the same time (vincristine+Lentinus edodes mycelium extract administration group). When the difference with the control group was determined to be significant using a significance level of 5%, the data were marked by “*”.
In the present test, the mice were divided into six groups by a difference in test objects. As in Example 1, male Balb/c mice of 6 to 7 weeks old were used. […]

CNCC[C@H](Oc1cccc2ccccc12)c1cccs1 [duloxetine]
latency compared with paclitaxel administration group, cold plate test ([1]; 3-day delayed after paclitaxel): almost the same as that in the paclitaxel administration group | latency, cold plate test ([1]; 6-day delayed after paclitaxel): same tendency as that in the duloxetine 3-day delayed administration group | avoidance score compared with vincristine administration group, von Frey test ([2]; 3-day delayed after vincristine): almost the same score as that in the vincristine administration group | avoidance score, von Frey test ([2]; 6-day delayed after vincristine): same tendency as that in the duloxetine 3-day delayed administration group
